This note sets out measurements from ChEMBL document CHEMBL5321205, “Development and therapeutic potential of adaptor-associated kinase 1 inhibitors in human multifaceted diseases” (Eur J Med Chem, 2023).

The IC50 is the concentration needed to halve the response being measured. For orientation: bioavailability means the share of a dose that reaches the circulation, judged against a reference dose that is usually intravenous. As usually defined, the half-life is the time needed for the level to fall by half in the phase considered. A lower half-life goes with fast loss. Broadly, the Kd is the concentration at which binding is half-saturated.

The target of data set [1] is T1, AP2-associated protein kinase 1 (Homo sapiens, UniProt Q2M2I8). The data set can be described thus: Inhibition of AAK1 expressed in human […] cells. The format is cell-based, HEK293F.
T1 sequence (Q2M2I8 whole entry): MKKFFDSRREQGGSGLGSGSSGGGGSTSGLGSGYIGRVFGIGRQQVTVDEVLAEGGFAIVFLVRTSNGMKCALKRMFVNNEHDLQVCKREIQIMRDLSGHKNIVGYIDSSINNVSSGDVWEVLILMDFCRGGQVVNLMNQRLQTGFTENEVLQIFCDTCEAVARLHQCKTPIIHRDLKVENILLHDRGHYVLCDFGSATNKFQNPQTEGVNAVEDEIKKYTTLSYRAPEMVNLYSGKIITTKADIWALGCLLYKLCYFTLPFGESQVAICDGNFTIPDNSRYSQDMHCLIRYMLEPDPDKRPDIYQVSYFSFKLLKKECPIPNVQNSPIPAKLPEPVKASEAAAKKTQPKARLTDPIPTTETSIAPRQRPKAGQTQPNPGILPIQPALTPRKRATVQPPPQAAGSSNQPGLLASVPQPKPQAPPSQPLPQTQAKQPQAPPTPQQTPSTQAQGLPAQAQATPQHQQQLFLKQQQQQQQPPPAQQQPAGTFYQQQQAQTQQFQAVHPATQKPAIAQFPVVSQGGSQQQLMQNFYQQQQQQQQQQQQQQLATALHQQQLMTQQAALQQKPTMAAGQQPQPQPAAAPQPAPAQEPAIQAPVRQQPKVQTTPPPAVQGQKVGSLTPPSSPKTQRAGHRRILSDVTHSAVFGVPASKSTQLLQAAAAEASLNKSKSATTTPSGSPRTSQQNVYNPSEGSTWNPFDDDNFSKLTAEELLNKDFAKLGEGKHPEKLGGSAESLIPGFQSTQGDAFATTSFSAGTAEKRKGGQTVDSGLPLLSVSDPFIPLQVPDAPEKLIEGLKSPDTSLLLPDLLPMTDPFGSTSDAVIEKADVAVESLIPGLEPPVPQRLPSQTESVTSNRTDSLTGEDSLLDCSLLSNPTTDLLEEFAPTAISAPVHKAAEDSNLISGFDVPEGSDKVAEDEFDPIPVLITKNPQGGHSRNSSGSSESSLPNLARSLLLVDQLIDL
Data set [2] in a line: Oral bioavailability in mouse at 10 mg/kg measured upto 24 hrs. The format is ADME, organism-based. Particulars: in vivo.
The nature of data set [3]: Half life in mouse at 10 mg/kg, po or 1 mg/kg, iv measured upto 24 hrs. The settings on record: in vivo. It is filed as ADME, organism-based.
Data set [4] has as its target T1, AP2-associated protein kinase 1. The data set can be described thus: Inhibition of GST-tagged recombinant AAK1 (unknown origin) using AP2M1 peptide as substrate by ADP-Glo kinase assay.
Data set [5] has the same target. The data set can be described thus: Inhibition of AAK1 (unknown origin).
Data set [6] shares this target. Put plainly: Binding affinity of AAK1 (unknown origin) assessed as dissociation constant.
Data set [7] shares this target. Put plainly: Inhibition of GST-Xa-tagged recombinant human AAK1 using (5-FAM)-Aha-KEEQSQITSQVTGQIGWR-NH2 as substrate assessed as reduction in AP2M1 phosphorylation incubated for 3 hrs in presence of ATP by fluorescence based assay.

Regarding `CC(C)C[C@](C)(N)COc1ccc(-c2ccncc2)cc1C(F)(F)F`, the IC50 in data set [1] turned out to be 2.9 nM.

In data set [2], `COc1ncccc1-c1cnn2ccc(N3CCN(C(=O)OC(C)C)CC3)nc12` registered a bioavailability of 100%. The half-life in data set [3] was 3.6 h.

In the case of `COC(=O)[C@@]1(O)C[C@@H]2O[C@]1(C)n1c3ccccc3c3c4c(c5c6ccccc6n2c5c31)C(=O)NC4`, the IC50 in data set [4] was less than 10 nM.

`COC(=O)[C@@]1(O)[C@@H](C)[C@H]2O[C@]1(C)n1c3ccccc3c3c4c(c5c6ccccc6n2c5c31)C(=O)NC4`: the IC50 in data set [4] was less than 30 nM.

As for `COc1ncccc1-c1cnc2ccc(N3CC[C@@H](N(C)C(=O)OC(C)C)C3)nn12`, the IC50 in data set [5] is less than 10 nM. The Kd in data set [6] is 1 nM.

`[3H]CC([3H])(C[3H])C([3H])[C@H](N)COc1ccc2c(c1)[nH]c(=O)c1cnccc12` (stereo partly specified): in data set [7], the IC50 was 2.8 nM.

The compound `COc1ncccc1-c1cnc2ccc(N3CC[C@@H](N(C)C(=O)OC(C)(C)C)C3)nn12` had an IC50 in data set [5] of less than 10 nM. Also, the Kd in data set [6] came out at 1 nM.

For the compound `COC(=O)c1ccc2c(c1)NC(=O)C2C(Nc1ccc(N(C)C(=O)CN2CCN(C)CC2)cc1)c1ccccc1` (stereo unspecified), the Kd in data set [6] is 1060 nM.
